In patent US10624897B2, “Chlorobenzene substituted azaaryl compounds” (TAIPEI MEDICAL UNIVERSITY, priority 2015, dated 2020):

Tests used:
Assay in all cases: Kinase binding assay (Kd)
PIM2 = molecular target: T1, PIM2 (Homo sapiens, UniProt Q9P1W9)
T1 construct: made in house; host or cells: E. coli BL21-derived host (T7 phage) for most kinases, HEK-293 for the rest
Protocol: (§1) Kinase assays. For most assays, kinase-tagged T7 phage strains were prepared in an E. coli host derived from the BL21 strain. E. coli were grown to log-phase and infected with T7 phage and incubated with shaking at 32° C. until lysis. The lysates were centrifuged and filtered to remove cell debris. The remaining kinases were produced in HEK-293 cells and subsequently tagged with DNA for qPCR detection. […] The liganded beads were blocked with excess biotin and washed with blocking buffer (SeaBlock (Pierce), 1% BSA, 0.05% Tween 20, 1 mM DTT) to remove unbound ligand and to reduce non-specific binding. […] All reactions were performed in polystyrene 96-well plates in a final volume of 0.135 ml. […] The kinase concentration in the eluates was measured by qPCR.
(§2) An 11-point 3-fold serial dilution of each test compound was prepared in 100% DMSO at 100× final test concentration and subsequently diluted to 1× in the assay (final DMSO concentration=1%). Most Kds were determined using a compound top concentration=30,000 nM.
(§3) Binding constants (Kds) were calculated with a standard dose-response curve using the Hill equation: […]
(§4) The Hill Slope was set to −1. Curves were fitted using a non-linear least square fit with the Levenberg-Marquardt algorithm.

LKB1 = molecular target: T2, LKB1 (Homo sapiens, UniProt Q15831)
T2 construct: made in house; host or cells: E. coli BL21-derived host (T7 phage) for most kinases, HEK-293 for the rest
T2 sequence (Q15831 whole entry): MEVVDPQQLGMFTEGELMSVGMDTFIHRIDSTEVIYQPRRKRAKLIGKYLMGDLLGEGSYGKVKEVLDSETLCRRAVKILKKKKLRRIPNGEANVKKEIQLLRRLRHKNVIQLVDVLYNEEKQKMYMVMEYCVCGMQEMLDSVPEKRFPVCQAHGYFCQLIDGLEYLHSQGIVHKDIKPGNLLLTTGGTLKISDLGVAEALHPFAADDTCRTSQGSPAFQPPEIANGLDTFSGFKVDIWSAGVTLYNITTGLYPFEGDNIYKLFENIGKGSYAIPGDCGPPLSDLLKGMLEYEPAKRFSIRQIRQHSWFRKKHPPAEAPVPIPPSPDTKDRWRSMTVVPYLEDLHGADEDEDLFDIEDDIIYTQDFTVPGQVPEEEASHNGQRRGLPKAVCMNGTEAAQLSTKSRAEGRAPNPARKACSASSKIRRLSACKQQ
Protocol: as §1, §2, §3, §4

TGFBR1 = molecular target: T3, TGFBR1 (Homo sapiens, UniProt P36897)
T3 construct: made in house; host or cells: E. coli BL21-derived host (T7 phage) or HEK-293
Protocol: as §1, §2, §3, §4

IKK-alpha = molecular target: T4, IKK-alpha (Homo sapiens, UniProt O15111)
T4 construct: made in house; host or cells: E. coli BL21-derived host (T7 phage) for most kinases, HEK-293 for the rest
T4 sequence (O15111 whole entry): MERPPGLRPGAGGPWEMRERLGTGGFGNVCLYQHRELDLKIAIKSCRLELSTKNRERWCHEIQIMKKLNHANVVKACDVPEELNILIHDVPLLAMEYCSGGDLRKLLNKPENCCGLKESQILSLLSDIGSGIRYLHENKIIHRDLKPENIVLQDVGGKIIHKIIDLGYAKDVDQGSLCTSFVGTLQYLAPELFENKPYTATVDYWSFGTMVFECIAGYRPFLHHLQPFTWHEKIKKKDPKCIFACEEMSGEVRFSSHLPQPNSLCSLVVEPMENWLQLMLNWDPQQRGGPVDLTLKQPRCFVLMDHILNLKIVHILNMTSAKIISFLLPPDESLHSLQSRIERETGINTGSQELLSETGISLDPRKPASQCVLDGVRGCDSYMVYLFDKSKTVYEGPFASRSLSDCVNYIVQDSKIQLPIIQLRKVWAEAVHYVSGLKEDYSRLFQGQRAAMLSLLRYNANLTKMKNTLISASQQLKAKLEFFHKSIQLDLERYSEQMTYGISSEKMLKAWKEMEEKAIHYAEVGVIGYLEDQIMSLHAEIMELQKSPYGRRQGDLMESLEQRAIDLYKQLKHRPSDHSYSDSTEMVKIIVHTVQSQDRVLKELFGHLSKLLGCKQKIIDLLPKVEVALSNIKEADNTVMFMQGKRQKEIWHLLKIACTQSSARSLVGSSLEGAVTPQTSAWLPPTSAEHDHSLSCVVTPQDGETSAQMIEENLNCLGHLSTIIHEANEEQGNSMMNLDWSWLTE
Protocol: as §1, §2, §3, §4

FGFR4 = molecular target: T5, FGFR4 (Homo sapiens, UniProt P22455)
T5 construct: made in house; host or cells: E. coli BL21-derived host (T7 phage) or HEK-293
Protocol: as §1, §2, §3, §4

CDK9 = molecular target: T6, CDK9 (Homo sapiens, UniProt P50750)
T6 construct: made in house; host or cells: E. coli BL21-derived host (T7 phage) or HEK-293
T6 sequence (P50750 whole entry): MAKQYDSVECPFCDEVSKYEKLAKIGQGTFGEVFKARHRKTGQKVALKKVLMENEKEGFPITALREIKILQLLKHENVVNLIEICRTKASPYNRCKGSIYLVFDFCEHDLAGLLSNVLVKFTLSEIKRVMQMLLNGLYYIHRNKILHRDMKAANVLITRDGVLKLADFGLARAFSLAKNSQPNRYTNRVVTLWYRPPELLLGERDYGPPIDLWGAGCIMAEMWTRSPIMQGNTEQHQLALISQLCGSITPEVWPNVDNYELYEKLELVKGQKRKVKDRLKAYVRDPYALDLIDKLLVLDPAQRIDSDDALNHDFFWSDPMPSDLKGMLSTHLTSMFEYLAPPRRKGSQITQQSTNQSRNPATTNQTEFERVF
Protocol: as §1, §2, §3, §4

DCAMKL1 = molecular target: T7, DCAMKL1 (Homo sapiens, UniProt O15075)
T7 construct: made in house; host or cells: E. coli BL21-derived host (T7 phage) or HEK-293
Protocol: as §1, §2, §3, §4

p38-beta = molecular target: T8, p38-beta (Homo sapiens, UniProt Q15759)
T8 construct: made in house; host or cells: E. coli BL21-derived host (T7 phage) for most kinases, HEK-293 for the rest
Protocol: as §1, §2, §3, §4

CSF1R = molecular target: T9, CSF1R (Homo sapiens, UniProt P07333)
T9 construct: made in house; host or cells: E. coli BL21-derived host (T7 phage) or HEK-293
Protocol: as §1, §2, §3, §4

ZAP70 = molecular target: T10, ZAP70 (Homo sapiens, UniProt P43403)
T10 construct: made in house; host or cells: E. coli BL21-derived host (T7 phage) or HEK-293
T10 sequence (P43403 whole entry): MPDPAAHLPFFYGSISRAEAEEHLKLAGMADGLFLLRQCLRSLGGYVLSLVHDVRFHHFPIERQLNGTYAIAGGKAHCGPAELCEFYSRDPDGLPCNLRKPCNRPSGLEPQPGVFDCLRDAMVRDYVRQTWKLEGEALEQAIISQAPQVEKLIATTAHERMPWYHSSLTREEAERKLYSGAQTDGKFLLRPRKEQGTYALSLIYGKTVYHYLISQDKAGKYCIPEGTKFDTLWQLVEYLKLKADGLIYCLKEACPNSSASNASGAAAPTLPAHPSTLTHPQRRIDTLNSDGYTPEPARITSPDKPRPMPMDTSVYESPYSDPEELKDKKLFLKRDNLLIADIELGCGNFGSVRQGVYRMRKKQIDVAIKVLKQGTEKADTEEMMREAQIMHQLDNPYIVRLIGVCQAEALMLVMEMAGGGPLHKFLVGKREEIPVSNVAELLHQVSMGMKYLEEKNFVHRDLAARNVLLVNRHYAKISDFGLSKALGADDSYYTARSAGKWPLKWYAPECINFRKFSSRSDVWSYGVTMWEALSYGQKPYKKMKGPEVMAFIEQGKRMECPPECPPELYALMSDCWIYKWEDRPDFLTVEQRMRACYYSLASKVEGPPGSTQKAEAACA
Protocol: as §1, §2, §3, §4

AXL = molecular target: T11, AXL (Homo sapiens, UniProt P30530)
T11 construct: made in house; host or cells: E. coli BL21-derived host (T7 phage) or HEK-293
T11 sequence (P30530 26-894): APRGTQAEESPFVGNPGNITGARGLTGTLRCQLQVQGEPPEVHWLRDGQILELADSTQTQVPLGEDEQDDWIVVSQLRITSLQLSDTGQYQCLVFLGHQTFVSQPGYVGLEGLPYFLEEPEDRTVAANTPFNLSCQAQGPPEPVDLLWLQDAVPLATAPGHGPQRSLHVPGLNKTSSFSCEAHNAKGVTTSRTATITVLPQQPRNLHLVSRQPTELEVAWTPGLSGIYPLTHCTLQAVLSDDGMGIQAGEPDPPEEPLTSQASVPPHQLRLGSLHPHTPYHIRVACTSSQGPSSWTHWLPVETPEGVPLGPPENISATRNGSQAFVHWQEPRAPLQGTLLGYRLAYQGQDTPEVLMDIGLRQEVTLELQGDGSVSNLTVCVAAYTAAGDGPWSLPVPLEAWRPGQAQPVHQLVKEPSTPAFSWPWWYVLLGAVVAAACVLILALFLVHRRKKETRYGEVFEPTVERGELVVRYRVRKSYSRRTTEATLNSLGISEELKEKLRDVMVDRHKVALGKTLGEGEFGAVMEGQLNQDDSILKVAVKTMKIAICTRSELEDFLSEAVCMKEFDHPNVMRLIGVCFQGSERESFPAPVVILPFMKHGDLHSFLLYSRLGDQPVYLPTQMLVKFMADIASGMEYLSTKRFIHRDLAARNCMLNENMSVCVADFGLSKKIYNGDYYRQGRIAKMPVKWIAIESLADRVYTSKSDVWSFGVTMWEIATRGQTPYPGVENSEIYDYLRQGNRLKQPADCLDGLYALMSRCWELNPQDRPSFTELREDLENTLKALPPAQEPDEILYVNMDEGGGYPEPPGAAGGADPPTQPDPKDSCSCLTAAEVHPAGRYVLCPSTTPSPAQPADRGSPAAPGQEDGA
Protocol: as §1, §2, §3, §4

FGFR2 = molecular target: T12, FGFR2 (Homo sapiens, UniProt P21802)
T12 construct: made in house; host or cells: E. coli BL21-derived host (T7 phage) or HEK-293
Protocol: as §1, §2, §3, §4

BMPR2 = molecular target: T13, BMPR2 (Homo sapiens, UniProt Q13873)
T13 construct: made in house; host or cells: E. coli BL21-derived host (T7 phage) or HEK-293
Protocol: as §1, §2, §3, §4

PIM3 = molecular target: T14, PIM3 (Homo sapiens, UniProt Q86V86)
T14 construct: made in house; host or cells: E. coli BL21-derived host (T7 phage) or HEK-293
Protocol: as §1, §2, §3, §4

PDPK1 = molecular target: T15, PDPK1 (Homo sapiens, UniProt O15530)
T15 construct: made in house; host or cells: E. coli BL21-derived host (T7 phage) for most kinases, HEK-293 for the rest
T15 sequence (O15530 whole entry): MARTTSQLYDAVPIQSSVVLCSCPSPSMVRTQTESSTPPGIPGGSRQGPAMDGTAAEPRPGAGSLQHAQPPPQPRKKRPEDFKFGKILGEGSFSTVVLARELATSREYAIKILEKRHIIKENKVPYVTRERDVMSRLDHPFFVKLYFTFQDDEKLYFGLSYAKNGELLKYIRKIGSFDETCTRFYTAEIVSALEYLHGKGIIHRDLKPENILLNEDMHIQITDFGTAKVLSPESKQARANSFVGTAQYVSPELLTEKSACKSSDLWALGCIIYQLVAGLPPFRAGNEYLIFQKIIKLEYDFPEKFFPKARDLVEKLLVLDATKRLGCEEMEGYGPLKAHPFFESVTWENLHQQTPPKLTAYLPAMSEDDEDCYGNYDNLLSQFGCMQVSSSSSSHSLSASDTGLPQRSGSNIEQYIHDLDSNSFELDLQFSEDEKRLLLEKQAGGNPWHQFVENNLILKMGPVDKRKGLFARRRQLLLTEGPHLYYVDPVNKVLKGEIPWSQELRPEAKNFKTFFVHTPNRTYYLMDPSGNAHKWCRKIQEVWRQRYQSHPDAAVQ
Protocol: as §1, §2, §3, §4

MEK1 = molecular target: T16, MEK1 (Homo sapiens, UniProt Q02750)
T16 construct: made in house; host or cells: E. coli BL21-derived host (T7 phage) for most kinases, HEK-293 for the rest
T16 sequence (Q02750 whole entry): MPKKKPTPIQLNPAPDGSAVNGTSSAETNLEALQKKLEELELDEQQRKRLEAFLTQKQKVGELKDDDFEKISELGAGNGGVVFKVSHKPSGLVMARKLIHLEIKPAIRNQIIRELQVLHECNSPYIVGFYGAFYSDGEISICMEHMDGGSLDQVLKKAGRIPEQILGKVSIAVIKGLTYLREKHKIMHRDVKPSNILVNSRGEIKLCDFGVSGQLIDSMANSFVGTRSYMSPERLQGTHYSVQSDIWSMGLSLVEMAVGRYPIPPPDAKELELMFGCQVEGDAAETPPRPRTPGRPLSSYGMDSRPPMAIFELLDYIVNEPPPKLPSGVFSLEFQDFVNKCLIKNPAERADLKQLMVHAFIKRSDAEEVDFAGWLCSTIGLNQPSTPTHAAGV
Protocol: as §1, §2, §3, §4

ERBB4 = molecular target: T17, ERBB4 (Homo sapiens, UniProt Q15303)
T17 construct: made in house; host or cells: E. coli BL21-derived host (T7 phage) for most kinases, HEK-293 for the rest
Protocol: as §1, §2, §3, §4

MEK2 = molecular target: T18, MEK2 (Homo sapiens, UniProt P36507)
T18 construct: made in house; host or cells: E. coli BL21-derived host (T7 phage) for most kinases, HEK-293 for the rest
Protocol: as §1, §2, §3, §4

MKNK1 = molecular target: T19, MKNK1 (Homo sapiens, UniProt Q9BUB5)
T19 construct: made in house; host or cells: E. coli BL21-derived host (T7 phage) for most kinases, HEK-293 for the rest
Protocol: as §1, §2, §3, §4

ERK1 = molecular target: T20, ERK1 (Homo sapiens, UniProt P27361)
T20 construct: made in house; host or cells: E. coli BL21-derived host (T7 phage) for most kinases, HEK-293 for the rest
T20 sequence (P27361 whole entry): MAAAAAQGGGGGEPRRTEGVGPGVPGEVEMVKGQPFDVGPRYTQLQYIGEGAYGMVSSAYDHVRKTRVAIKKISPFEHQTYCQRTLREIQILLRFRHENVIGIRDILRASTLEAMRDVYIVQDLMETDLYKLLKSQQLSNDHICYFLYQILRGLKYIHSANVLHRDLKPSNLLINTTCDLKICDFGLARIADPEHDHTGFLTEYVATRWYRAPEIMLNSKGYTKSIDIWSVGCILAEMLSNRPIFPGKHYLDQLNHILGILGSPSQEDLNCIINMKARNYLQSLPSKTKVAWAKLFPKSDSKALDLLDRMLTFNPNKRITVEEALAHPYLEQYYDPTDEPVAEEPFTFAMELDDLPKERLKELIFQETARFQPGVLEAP
Protocol: as §1, §2, §3, §4

MLK1 = molecular target: T21, MLK1 (Homo sapiens, UniProt P80192)
T21 construct: made in house; host or cells: E. coli BL21-derived host (T7 phage) for most kinases, HEK-293 for the rest
Protocol: as §1, §2, §3, §4

EGFR = molecular target: T22, EGFR (Homo sapiens, UniProt P00533)
T22 construct: made in house; host or cells: E. coli BL21-derived host (T7 phage) or HEK-293
Protocol: as §1, §2, §3, §4

MKNK2 = molecular target: T23, MKNK2 (Homo sapiens, UniProt Q9HBH9)
T23 construct: made in house; host or cells: E. coli BL21-derived host (T7 phage) for most kinases, HEK-293 for the rest
Protocol: as §1, §2, §3, §4

ROCK2 = molecular target: T24, ROCK2 (Homo sapiens, UniProt O75116)
T24 construct: made in house; host or cells: E. coli BL21-derived host (T7 phage) or HEK-293
Protocol: as §1, §2, §3, §4

IGF1R = molecular target: T25, IGF1R (Homo sapiens, UniProt P08069)
T25 construct: made in house; host or cells: E. coli BL21-derived host (T7 phage) for most kinases, HEK-293 for the rest
Protocol: as §1, §2, §3, §4

ACVR1B = molecular target: T26, ACVR1B (Homo sapiens, UniProt P36896)
T26 construct: made in house; host or cells: E. coli BL21-derived host (T7 phage) or HEK-293
Protocol: as §1, §2, §3, §4

p38-alpha = molecular target: T27, p38-alpha (Homo sapiens, UniProt Q16539)
T27 construct: made in house; host or cells: E. coli BL21-derived host (T7 phage) for most kinases, HEK-293 for the rest
Protocol: as §1, §2, §3, §4

SRPK3 = molecular target: T28, SRPK3 (Homo sapiens, UniProt Q9UPE1)
T28 construct: made in house; host or cells: E. coli BL21-derived host (T7 phage) or HEK-293
Protocol: as §1, §2, §3, §4

TSSK1B = molecular target: T29, TSSK1B (Homo sapiens, UniProt Q9BXA7)
T29 construct: made in house; host or cells: E. coli BL21-derived host (T7 phage) or HEK-293
Protocol: as §1, §2, §3, §4

INSR = molecular target: T30, INSR (Homo sapiens, UniProt P06213)
T30 construct: made in house; host or cells: E. coli BL21-derived host (T7 phage) for most kinases, HEK-293 for the rest
Protocol: as §1, §2, §3, §4

PLK1 = molecular target: T31, PLK1 (Homo sapiens, UniProt P53350)
T31 construct: made in house; host or cells: E. coli BL21-derived host (T7 phage) or HEK-293
T31 sequence (P53350 whole entry): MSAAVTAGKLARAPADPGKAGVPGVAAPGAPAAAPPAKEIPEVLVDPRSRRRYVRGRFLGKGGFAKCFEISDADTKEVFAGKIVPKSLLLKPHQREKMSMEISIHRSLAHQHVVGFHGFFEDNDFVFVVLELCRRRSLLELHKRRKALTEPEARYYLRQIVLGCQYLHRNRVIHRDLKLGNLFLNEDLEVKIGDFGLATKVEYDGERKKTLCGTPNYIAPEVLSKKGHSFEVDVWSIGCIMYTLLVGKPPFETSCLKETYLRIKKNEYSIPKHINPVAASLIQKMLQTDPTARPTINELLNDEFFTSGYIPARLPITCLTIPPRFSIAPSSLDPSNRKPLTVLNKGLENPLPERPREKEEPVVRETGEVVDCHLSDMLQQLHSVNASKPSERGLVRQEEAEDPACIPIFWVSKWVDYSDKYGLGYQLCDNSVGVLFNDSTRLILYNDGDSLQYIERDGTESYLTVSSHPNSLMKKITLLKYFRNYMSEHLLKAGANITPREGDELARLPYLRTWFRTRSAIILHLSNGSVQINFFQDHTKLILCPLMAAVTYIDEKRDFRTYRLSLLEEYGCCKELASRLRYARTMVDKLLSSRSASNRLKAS
Protocol: as §1, §2, §3, §4

FLT3 = molecular target: T32, FLT3 (Homo sapiens, UniProt P36888)
T32 construct: made in house; host or cells: E. coli BL21-derived host (T7 phage) or HEK-293
Protocol: as §1, §2, §3, §4

MAPKAPK2 = molecular target: T33, MAPKAPK2 (Homo sapiens, UniProt P49137)
T33 construct: made in house; host or cells: E. coli BL21-derived host (T7 phage) for most kinases, HEK-293 for the rest
Protocol: as §1, §2, §3, §4

PDGFRB = molecular target: T34, PDGFRB (Homo sapiens, UniProt P09619)
T34 construct: made in house; host or cells: E. coli BL21-derived host (T7 phage) or HEK-293
Protocol: as §1, §2, §3, §4

EPHA2 = molecular target: T35, EPHA2 (Homo sapiens, UniProt P29317)
T35 construct: made in house; host or cells: E. coli BL21-derived host (T7 phage) for most kinases, HEK-293 for the rest
Protocol: as §1, §2, §3, §4

CDK3 = molecular target: T36, CDK3 (Homo sapiens, UniProt Q00526)
T36 construct: made in house; host or cells: E. coli BL21-derived host (T7 phage) or HEK-293
Protocol: as §1, §2, §3, §4

FGFR1 = molecular target: T37, FGFR1 (Homo sapiens, UniProt P11362)
T37 construct: made in house; host or cells: E. coli BL21-derived host (T7 phage) or HEK-293
Protocol: as §1, §2, §3, §4

Measured: Kd

CCN1CCN(c2ccc(Nc3ncnc(N(C)C(=O)Nc4c(Cl)c(OC)c(Cl)c(OC)c4Cl)n3)cc2)CC1 [MPT0L145, 1-(4-((4-(4-ethylpiperazin-1-yl)phenyl)amino)-1,3,5-triazin-2-yl)-1-methyl-3-(2,4,6-trichloro-3,5-dimethoxyphenyl)urea]
0.67 µM: FGFR2
0.13 µM: FGFR1
1.3 µM: FLT3
7.5 µM: FGFR4
0.34 µM: CSF1R
0.68 µM: PDGFRB
> 10 µM: all other assays above
